Test results: patent publication US20220144752A1, “WATER-SOLUBLE NAPHTHOQUINONE DERIVATIVE COMPOSITION AND METHOD FOR PRODUCING SAME, WATER-SOLUBLE COMPOSITION FOR CONTROLLING HARMFUL ALGAE, METHOD FOR CONTROLLING LARGE-SCALE HARMFUL ALGAE, AND AUTOMATION SYSTEM FOR AI-MONITORING, REMOVING, AND PREVENTING LARGE-SCALE HARMFUL ALGAE” (priority 2019, published 2022)
Counter-ions that a name gives are not always drawn.

Assays:
[1] = Solubility in organic solvents; assay type: physicochemical
Description: Therefore, diethyl ether (Et2O) is recommended for washing.

Scenedesmus = test: Algal effect experiment (algal activity by cell counting); assay type: cell-based, scenedesmus sp.; details: 1, 2 and 6 μM, up to 72 hours
Procedure: (§1) The harmful algae algal effect at various inoculation concentrations of the compounds according to an example of the present disclosure was measured. To this end, freshwater harmful algae as treated group include blue-green algae, cyanobacteria microcystis aeruginosa, dolichospermum circinale, aphanizomenon sp., and pseudoanabaena sp., diatoms, stephanodiscus hantzschii, and synedra sp., and green algae, scenedesmus sp., and seawater harmful algae includes trichodesmium sp., alexandrium tamarens, cochlodinium polykrikoides, prorocentrum minimum, and heterosigma akashiwo which are blue-green algae, and pseudo-nitzschia pungens fungens which is diatoms. […]
(§2) Reviewing the details of the experiment, in the case of freshwater species, 5 mL of each culture line was prepared so that the cell density was 5.0×10^3-9.0×10^4 cells/mL, and in the case of seawater species, was prepared so that the cell density was 1.0×10^2-1.0×10^4 cells/mL. […] Counting of the number of cells was performed through an SR-chamber or a hemocytometer under an upright or inverted microscope, and by counting the number of cells after 24 hours, 48 hours, and 72 hours, the reduction ratio of cells compared to before treatment, that is, algal activity (%) was calculated using the following [Equation 1]. […]
(§3) Based on the above [Formula 1], the algal activity of the compound was expressed as 60% or less, 60 to 80%, 80% or more. […]

[2] = Biodegradability in on-site stream water (UHPLC-DAD); assay type: physicochemical; details: Jungnangcheon stream water, 6.5 μM input, 20° C.
Procedure: An experiment was performed to evaluate the biodegradability in the water system of the compound of [Chemical Formula 1] according to the example of the present disclosure. First, on-site water from the Jungnangcheon stream in Seoul was collected and sprayed so that the concentration of the substance was 6.5 μM, and then acclimatized to a constant temperature condition of 20° C. The experimental volume was 350 mL, and samples were taken at intervals of 1-3 days, and 5 mL was taken per one time. This sample was filtered with a GF/F filter and stored frozen, and then melted at room temperature for analysis, filtered again with a 0.45 μm nylon filter, and then proceeded under the following analysis conditions. • Equipment: Agilent 1290 Infinity (UHPLC-DAD) • Column: Eclipse Puls-[…] (4.6 mm*100 mm*3.5 μm) • Column temperature: 40° C. • Mobile phase: Isocratic=>A: 0.1% phosphoric acid in D.W, B: ACN=70:30 • Analysis time: 7 min • Flow rate: 1.0 mL/min • Detector: DAD Detector (measurement waveform: 260 nm) • Injection volume: 1 μL

[3] = tested on: luminescent bacteria (vibrio fischeri); test: Ecotoxicity test, relative luminescence of luminescent bacteria; assay type: cell-based; details: for relative luminescence of the luminescent bacteria: supernatant of microcystis aeruginosa culture treated at 1 μM
Procedure: In order to investigate the effect of the compound according to an example of the present disclosure, that is, a composition according to [Chemical Formula 1] on the ecosystem, biotoxicity evaluation indicator organisms such as luminescent bacteria (vibrio fischeri) and daphnia (Daphnia magna) was used to evaluate the ecotoxicity.
First, in the case of the luminescent bacteria, an experiment was conducted according to the water pollution process test method, and as a sample for ecotoxicity evaluation, the compound specified in Example 1 was added to the blue-green algae, microcystis aeruginosa (10,488 cells/mL) at a concentration of 1 μM, and then, the supernatant was taken after 24 hours, 48 hours, and 72 hours and the luminescent bacteria were injected. Thereafter, the relative luminescence of the treated group compared to the control group was measured to confirm the luminescence reduction effect, and thus, the toxicity of each sample was evaluated.

microcystis = test: Algal effect experiment (algal activity by cell counting); assay type: cell-based, microcystis aeruginosa; details: concentration of 1 μM or more
Procedure: as §1, §2, §3

Synedra = test: as above; assay type: cell-based, synedra sp.; details: 1 μM, second day; cell growth observed again afterwards
Procedure: as §1, §2, §3

aphanizomenon = test: as above; assay type: cell-based, aphanizomenon sp.; details: concentration of 2 μM or more
Procedure: as §1, §2, §3

[4] = tested on: cochlodinium polykrikoides; test: as above; assay type: cell-based; details: concentration of 1 μM or more
Procedure: (§4) The harmful algae algal effect at various inoculation concentrations of the compounds according to an example of the present disclosure was measured. To this end, freshwater harmful algae as treated group include blue-green algae, cyanobacteria microcystis aeruginosa, dolichospermum circinale, aphanizomenon sp., and pseudoanabaena sp., diatoms, stephanodiscus hantzschii, and synedra sp., and green algae, scenedesmus sp., and seawater harmful algae includes trichodesmium sp., alexandrium tamarens, cochlodinium polykrikoides, prorocentrum minimum, and heterosigma akashiwo which are blue-green algae, and pseudo-nitzschia pungens fungens which is diatoms. The culture conditions are shown in [Table 1] below.
(§5) Reviewing the details of the experiment, in the case of freshwater species, 5 mL of each culture line was prepared so that the cell density was 5.0×10^3-9.0×10^4 cells/mL, and in the case of seawater species, was prepared so that the cell density was 1.0×10^2-1.0×10^4 cells/mL. After preparing each culture, the compounds specified as [Chemical Formula 1] prepared according to Examples were inoculated at various concentrations, and are treated so that the final concentrations were 1, 2, and 6 μM, respectively. Then, the compositions were cultured under the culture conditions of [Table 1], and cultured under continuous light conditions and observed for 72 hours. Counting of the number of cells was performed through an SR-chamber or a hemocytometer under an upright or inverted microscope, and by counting the number of cells after 24 hours, 48 hours, and 72 hours, the reduction ratio of cells compared to before treatment, that is, algal activity (%) was calculated using the following [Equation 1].
(§6) Algal activity (%)=(1−Tt/Ct)×100 [Equation 1]
(§7) In this case, in [Equation 1], T represents the density of cells after treating the compound, C represents the density of cells not treating the compound, and t represents the culture time.
(§8) Based on the above [Formula 1], the algal activity of the compound was expressed as 60% or less, 60 to 80%, 80% or more. When the algal activity reached 80% within 48 hours at any compound concentration, it was determined that there was an effect at a concentration higher than that and the high concentration experiment was stopped.

diatoms = test: as above; assay type: cell-based; details: 1, 2 and 6 μM, up to 72 hours
Procedure: as §4, §5, §6, §7, §8

green algae = test: as above; assay type: cell-based; details: 1, 2 and 6 μM, up to 72 hours
Procedure: as §4, §5, §6, §7, §8

heterosigma akashiwo = test: as above; assay type: cell-based; details: concentration of 2 μM or more
Procedure: as §4, §5, §6, §7, §8

akashiwo sanguinea = test: as above; assay type: cell-based; details: concentration of 6 μM or more
alexandrium tamarence = test: as above; assay type: cell-based, alexandrium tamarens; details: concentration of 1 μM or more
Procedure: as §1, §2, §3

dolichospermum = test: as above; assay type: cell-based, dolichospermum circinale; details: concentration of 1 μM or more
Procedure: as §1, §2, §3

CCN(CC)CCNC1=CC(=O)c2ccccc2C1=O [Chemical Formula 1, 2-((2-(diethylamino)ethyl)amino)naphthalene-1,4-dione HCl]
solubility ([1]; 1,4-dioxane): slightly dissolved | solubility ([1]; dimethyl sulfoxide (DMSO)): well dissolved | solubility ([1]; ethanol (EtOH)): slightly dissolved | algal effect (Scenedesmus): hardly observed | concentration of the substance relative to the initial input concentration ([2]; 7th day): 70% | concentration of the substance ([2]; until the first 2 days): maintained at the input concentration level | relative luminance versus control group ([3]; sample added at 1 μM): did not differ from that of the control group | relative luminescence of the luminescent bacteria ([3]; after 24 hours): 100% | relative luminescence of the luminescent bacteria ([3]; after 48 hours): 100% | relative luminescence of the luminescent bacteria ([3]; after 72 hours): 100% | algal effect (killed) (microcystis): ≥ 90% | algal effect (Synedra): 70% | algae effect (aphanizomenon): ≥ 80% | algal effect [4]: more than 90% | algal effect (diatoms): insignificant | algal effect (green algae): insignificant | algal effect (heterosigma akashiwo): more than 90% | algal effect (akashiwo sanguinea): more than 80% | algal effect (alexandrium tamarence): more than 90% | algal effect (killed) (dolichospermum): ≥ 90%
